PMC10924921, “Mi-2β promotes immune evasion in melanoma by activating EZH2 methylation” (Nature Communications, 2024)

Tests used:
Test in all cases: biochemical
Parameters in all cases: KINOMEscan active-site competition binding panel (468 kinase assays), per cent of control at 1000 nM
Details in all cases: KINOMEscan per cent of control (binding competition); read-out: Percent Control
AKT2 = AKT2 (Homo sapiens, UniProt P31751)
Text: (§1) Figure S7 / Percent Control

DAPK3 = DAPK3 (Homo sapiens, UniProt O43293)
DAPK3, sequence (O43293 whole entry): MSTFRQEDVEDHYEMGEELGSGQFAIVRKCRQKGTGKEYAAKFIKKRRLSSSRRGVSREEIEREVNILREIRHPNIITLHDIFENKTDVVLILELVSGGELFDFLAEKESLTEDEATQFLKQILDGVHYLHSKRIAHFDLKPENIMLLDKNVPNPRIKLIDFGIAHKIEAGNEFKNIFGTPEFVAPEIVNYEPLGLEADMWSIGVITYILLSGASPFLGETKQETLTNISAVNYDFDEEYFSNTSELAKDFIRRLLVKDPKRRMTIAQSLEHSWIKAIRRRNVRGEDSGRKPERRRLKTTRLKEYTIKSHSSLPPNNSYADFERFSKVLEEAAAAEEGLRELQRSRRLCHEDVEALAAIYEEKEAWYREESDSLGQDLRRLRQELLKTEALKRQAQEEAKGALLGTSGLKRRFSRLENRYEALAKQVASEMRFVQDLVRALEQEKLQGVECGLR
Text: as §1

CSNK1G1 = CSNK1G1 (Homo sapiens, UniProt Q9HCP0)
CSNK1G1, sequence (Q9HCP0 whole entry): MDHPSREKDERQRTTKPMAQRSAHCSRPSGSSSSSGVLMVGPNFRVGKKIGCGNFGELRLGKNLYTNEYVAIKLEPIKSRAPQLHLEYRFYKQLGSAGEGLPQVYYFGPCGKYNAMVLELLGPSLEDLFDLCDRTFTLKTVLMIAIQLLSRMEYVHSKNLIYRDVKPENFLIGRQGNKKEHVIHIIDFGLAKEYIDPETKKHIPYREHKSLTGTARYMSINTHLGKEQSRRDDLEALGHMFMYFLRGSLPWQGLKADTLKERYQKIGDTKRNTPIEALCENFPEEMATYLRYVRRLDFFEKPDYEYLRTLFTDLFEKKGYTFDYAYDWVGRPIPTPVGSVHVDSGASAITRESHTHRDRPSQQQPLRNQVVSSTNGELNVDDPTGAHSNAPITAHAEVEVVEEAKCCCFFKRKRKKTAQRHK
Text: as §1

[1] = biological target: T1, TYK2(JH1domain-catalytic) (Homo sapiens, UniProt P29597)
T1 construct: JH1domain-catalytic
T1 sequence (P29597 whole entry): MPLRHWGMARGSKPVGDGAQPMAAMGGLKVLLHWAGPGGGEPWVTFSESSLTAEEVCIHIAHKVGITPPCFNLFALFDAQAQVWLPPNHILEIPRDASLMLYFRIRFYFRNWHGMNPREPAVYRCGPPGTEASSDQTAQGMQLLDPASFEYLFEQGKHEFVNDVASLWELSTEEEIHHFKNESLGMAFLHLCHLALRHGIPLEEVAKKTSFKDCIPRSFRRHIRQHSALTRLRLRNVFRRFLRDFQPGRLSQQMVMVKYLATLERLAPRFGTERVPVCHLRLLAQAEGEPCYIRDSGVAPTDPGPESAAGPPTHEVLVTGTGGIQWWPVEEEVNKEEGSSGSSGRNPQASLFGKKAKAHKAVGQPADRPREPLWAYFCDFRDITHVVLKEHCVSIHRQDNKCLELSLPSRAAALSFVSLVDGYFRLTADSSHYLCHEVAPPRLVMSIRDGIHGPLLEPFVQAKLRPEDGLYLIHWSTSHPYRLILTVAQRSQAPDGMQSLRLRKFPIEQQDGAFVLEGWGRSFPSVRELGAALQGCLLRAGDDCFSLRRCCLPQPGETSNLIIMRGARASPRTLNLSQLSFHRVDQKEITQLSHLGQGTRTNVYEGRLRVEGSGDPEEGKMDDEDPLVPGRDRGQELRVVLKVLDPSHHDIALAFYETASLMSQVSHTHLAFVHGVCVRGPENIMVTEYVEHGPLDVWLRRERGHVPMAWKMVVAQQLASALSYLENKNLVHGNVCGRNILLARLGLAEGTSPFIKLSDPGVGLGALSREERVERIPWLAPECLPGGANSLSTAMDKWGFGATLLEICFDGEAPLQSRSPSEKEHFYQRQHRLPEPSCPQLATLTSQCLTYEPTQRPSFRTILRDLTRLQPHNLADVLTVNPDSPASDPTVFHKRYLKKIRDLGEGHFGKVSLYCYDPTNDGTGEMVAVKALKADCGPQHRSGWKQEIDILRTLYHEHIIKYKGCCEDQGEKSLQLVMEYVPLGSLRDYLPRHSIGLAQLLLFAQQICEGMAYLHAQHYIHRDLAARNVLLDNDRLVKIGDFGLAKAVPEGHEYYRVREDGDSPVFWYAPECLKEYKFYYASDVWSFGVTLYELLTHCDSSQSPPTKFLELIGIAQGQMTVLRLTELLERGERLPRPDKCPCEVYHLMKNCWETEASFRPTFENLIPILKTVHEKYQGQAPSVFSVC
Text: as §1

RIPK4 = RIPK4 (Homo sapiens, UniProt P57078)
Text: as §1

[2] = biological target: T2, ABL1(F317I)-nonphosphorylated (Homo sapiens, UniProt P00519, F317I)
T2 construct: nonphosphorylated
Text: as §1

IGF1R = IGF1R (Homo sapiens, UniProt P08069)
Text: as §1

MEK2 = biological target: T3, MEK2 (Homo sapiens, UniProt P36507)
T3 construct: gene MAP2K2
T3 sequence (P36507 whole entry): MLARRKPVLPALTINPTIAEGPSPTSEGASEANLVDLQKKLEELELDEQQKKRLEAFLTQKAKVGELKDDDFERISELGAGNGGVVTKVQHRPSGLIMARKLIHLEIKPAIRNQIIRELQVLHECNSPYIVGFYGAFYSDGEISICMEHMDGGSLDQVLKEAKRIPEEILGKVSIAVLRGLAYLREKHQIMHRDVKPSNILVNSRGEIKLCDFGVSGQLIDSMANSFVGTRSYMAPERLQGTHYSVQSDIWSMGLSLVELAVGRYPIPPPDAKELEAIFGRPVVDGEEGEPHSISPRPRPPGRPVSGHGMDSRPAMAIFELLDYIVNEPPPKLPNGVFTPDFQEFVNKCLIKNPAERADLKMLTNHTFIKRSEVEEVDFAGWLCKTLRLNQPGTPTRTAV
Text: as §1

[3] = biological target: T4, ABL1(H396P)-nonphosphorylated (Homo sapiens, UniProt P00519, H396P)
T4 construct: nonphosphorylated
Text: as §1

TEC = TEC (Homo sapiens, UniProt P42680)
TEC, sequence (P42680 whole entry): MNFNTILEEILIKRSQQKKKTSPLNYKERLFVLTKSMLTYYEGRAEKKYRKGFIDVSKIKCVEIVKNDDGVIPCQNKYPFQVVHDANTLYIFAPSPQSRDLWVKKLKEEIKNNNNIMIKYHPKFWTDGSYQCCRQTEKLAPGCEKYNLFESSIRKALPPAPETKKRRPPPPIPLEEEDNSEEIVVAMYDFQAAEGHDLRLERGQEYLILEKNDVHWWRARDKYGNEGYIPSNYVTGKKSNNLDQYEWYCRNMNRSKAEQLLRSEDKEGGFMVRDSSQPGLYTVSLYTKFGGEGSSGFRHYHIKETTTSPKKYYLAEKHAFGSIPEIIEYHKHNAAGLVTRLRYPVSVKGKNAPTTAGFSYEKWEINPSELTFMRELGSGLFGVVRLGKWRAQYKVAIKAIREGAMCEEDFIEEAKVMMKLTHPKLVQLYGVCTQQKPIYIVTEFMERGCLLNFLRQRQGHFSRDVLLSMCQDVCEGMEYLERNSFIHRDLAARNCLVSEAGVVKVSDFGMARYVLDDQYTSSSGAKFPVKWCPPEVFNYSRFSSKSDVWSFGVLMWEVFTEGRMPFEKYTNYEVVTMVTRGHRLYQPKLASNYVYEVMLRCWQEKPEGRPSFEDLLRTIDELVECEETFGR
Text: as §1

ACVR1B = ACVR1B (Homo sapiens, UniProt P36896)
Text: as §1

FER = FER (Homo sapiens, UniProt P16591)
Text: as §1

PDPK1 = PDPK1 (Homo sapiens, UniProt O15530)
Text: as §1

PFTAIRE2 = biological target: T5, PFTAIRE2 (Homo sapiens, UniProt Q96Q40)
T5 construct: gene CDK15
Text: as §1

PRKCE = PRKCE (Homo sapiens, UniProt Q02156)
Text: as §1

KIT(V559D) = KIT(V559D) (Homo sapiens, UniProt P10721, V559D)
Text: as §1

ERK2 = biological target: T6, ERK2 (Homo sapiens, UniProt P28482)
T6 construct: gene MAPK1
Text: as §1

VPS34 = biological target: T7, VPS34 (Homo sapiens, UniProt Q8NEB9)
T7 construct: gene PIK3C3
T7 sequence (Q8NEB9 whole entry): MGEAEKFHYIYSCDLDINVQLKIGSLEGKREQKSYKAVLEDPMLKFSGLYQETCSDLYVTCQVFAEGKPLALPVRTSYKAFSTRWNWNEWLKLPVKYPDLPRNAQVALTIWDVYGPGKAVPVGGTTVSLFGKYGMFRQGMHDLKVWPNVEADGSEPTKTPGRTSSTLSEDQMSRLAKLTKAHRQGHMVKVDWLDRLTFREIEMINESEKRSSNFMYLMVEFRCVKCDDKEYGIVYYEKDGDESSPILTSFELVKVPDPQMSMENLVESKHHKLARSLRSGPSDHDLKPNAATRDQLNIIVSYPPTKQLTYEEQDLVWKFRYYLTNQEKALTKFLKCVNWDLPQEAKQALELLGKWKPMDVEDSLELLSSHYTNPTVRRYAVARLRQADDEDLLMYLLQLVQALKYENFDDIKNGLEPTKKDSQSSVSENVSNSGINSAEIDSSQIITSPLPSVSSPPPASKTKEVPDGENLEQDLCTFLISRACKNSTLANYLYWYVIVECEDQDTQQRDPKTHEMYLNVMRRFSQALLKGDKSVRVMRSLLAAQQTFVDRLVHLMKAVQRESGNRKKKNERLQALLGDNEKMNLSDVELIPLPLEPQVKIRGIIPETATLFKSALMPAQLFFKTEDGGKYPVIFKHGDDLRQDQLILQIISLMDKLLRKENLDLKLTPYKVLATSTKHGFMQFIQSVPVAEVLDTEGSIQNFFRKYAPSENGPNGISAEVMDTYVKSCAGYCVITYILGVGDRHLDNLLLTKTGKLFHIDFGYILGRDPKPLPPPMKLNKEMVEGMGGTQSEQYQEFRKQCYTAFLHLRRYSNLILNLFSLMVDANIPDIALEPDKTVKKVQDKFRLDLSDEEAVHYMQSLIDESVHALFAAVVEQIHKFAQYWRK
Text: as §1

TRKB = biological target: T8, TRKB (Homo sapiens, UniProt Q16620)
T8 construct: gene NTRK2
Text: as §1

PRKD2 = PRKD2 (Homo sapiens, UniProt Q9BZL6)
PRKD2, sequence (Q9BZL6 whole entry): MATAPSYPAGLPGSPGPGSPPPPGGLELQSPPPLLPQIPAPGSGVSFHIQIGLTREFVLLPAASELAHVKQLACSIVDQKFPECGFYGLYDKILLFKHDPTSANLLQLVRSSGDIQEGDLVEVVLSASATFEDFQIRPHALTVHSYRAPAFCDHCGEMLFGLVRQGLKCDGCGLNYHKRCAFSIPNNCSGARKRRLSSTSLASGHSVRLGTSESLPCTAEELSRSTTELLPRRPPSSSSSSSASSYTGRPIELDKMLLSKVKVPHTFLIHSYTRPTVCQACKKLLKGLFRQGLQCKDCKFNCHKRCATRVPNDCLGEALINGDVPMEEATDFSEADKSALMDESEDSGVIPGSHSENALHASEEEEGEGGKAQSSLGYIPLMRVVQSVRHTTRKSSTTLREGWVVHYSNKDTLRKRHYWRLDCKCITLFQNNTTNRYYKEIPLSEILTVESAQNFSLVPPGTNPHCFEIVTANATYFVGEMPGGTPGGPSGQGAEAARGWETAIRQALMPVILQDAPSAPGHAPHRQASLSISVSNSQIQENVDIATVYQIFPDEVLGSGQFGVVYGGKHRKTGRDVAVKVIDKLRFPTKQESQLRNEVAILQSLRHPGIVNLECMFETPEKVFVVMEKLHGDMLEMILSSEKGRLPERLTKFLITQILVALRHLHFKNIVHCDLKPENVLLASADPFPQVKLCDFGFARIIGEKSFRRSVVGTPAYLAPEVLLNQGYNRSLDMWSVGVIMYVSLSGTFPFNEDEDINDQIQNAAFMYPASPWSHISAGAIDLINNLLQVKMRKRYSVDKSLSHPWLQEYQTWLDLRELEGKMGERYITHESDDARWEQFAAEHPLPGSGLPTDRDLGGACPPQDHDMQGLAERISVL
Text: as §1

DMPK2 = biological target: T9, DMPK2 (Homo sapiens, UniProt Q6DT37)
T9 construct: gene CDC42BPG
Text: as §1

TBK1 = TBK1 (Homo sapiens, UniProt Q9UHD2)
Text: as §1

[4] = biological target: T10, ABL1(Q252H)-nonphosphorylated (Homo sapiens, UniProt P00519, Q252H)
T10 construct: nonphosphorylated
Text: as §1

HASPIN = HASPIN (Homo sapiens, UniProt Q8TF76)
Text: as §1

## Cn1c(=O)[nH]c2ccc(-c3cccc(C(=O)NC4CCn5ccnc5C4)c3)cc21 (stereo not drawn) [Z36-MP5]
AKT2
  remaining binding at 1 µM: 89%
DAPK3
  remaining binding at 1 µM: 89%
CSNK1G1
  remaining binding at 1 µM: 63%
[1]
  remaining binding at 1 µM: 64%
RIPK4
  remaining binding at 1 µM: 99%
[2]
  remaining binding at 1 µM: 85%
IGF1R
  remaining binding at 1 µM: 97%
MEK2
  remaining binding at 1 µM: 58%
[3]
  remaining binding at 1 µM: 69%
TEC
  remaining binding at 1 µM: 98%
ACVR1B
  remaining binding at 1 µM: 94%
FER
  remaining binding at 1 µM: 90%
PDPK1
  remaining binding at 1 µM: 97%
PFTAIRE2
  remaining binding at 1 µM: 90%
PRKCE
  remaining binding at 1 µM: 100%
KIT(V559D)
  remaining binding at 1 µM: 90%
ERK2
  remaining binding at 1 µM: 81%
VPS34
  remaining binding at 1 µM: 49%
TRKB
  remaining binding at 1 µM: 52%
PRKD2
  remaining binding at 1 µM: 64%
DMPK2
  remaining binding at 1 µM: 99%
TBK1
  remaining binding at 1 µM: 98%
[4]
  remaining binding at 1 µM: 84%
HASPIN
  remaining binding at 1 µM: 71%
